Assay results as given in ChEMBL document CHEMBL3813632, “Thiazolo[3,2-a]benzimidazol-3(2H)-one derivatives: Structure-activity relationships of selective nucleotide pyrophosphatase/phosphodiesterase1 (NPP1) inhibitors” (Bioorg Med Chem, 2016).

Assays:
[1] = molecular target: T1, Ectonucleotide pyrophosphatase/phosphodiesterase family member 1 (Homo sapiens, UniProt P22413); assay: Inhibition of human recombinant NPP1 expressed in insect SF9 cells using ATP as substrate preincubated with substrate followed by protein addition and subsequent incubation for 30 mins by capillary electrophoresis
T1 sequence (P22413 whole entry): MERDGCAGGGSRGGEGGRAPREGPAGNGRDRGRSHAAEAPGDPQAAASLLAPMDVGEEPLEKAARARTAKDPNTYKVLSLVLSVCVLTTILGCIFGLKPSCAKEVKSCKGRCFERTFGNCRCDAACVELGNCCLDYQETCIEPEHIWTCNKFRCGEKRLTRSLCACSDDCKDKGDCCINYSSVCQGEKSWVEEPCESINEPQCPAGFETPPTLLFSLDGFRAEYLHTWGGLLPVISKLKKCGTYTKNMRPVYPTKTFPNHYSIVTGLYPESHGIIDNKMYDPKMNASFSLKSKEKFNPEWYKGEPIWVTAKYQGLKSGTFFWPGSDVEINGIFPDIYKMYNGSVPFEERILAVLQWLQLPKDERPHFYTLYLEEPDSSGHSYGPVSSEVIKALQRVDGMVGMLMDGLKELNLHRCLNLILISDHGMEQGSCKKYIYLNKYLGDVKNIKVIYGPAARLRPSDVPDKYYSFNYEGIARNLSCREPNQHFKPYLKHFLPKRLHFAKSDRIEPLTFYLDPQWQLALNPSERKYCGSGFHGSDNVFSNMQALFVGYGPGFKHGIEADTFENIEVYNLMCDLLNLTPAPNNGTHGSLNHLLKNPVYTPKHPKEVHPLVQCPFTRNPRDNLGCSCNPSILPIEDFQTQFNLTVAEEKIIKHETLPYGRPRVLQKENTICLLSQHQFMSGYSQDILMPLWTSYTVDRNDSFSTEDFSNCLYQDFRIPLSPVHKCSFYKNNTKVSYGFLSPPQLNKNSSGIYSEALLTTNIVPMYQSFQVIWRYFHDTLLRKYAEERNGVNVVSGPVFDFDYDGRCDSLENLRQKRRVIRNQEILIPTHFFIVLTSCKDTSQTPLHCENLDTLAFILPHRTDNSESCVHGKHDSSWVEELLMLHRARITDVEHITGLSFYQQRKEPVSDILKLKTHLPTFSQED

[2] = molecular target: T2, Ectonucleotide pyrophosphatase/phosphodiesterase family member 1 (Homo sapiens) (UniProt P22413); assay: Inhibition of human recombinant NPP1 expressed in insect SF9 cells using ATP as substrate at 10 uM preincubated with substrate followed by protein addition and subsequent incubation for 30 mins by capillary electrophoresis
T2 sequence (whole entry): T1 sequence (P22413 whole entry)

[3] = molecular target: T1, Ectonucleotide pyrophosphatase/phosphodiesterase family member 1; assay: Competitive inhibition of human NPP1 transfected in HEK293 cells using p-Nph-5'-TMP as substrate preincubated for 3 mins followed by substrate addition measured after 15 mins by Cornish-Bowden plot analysis
[4] = molecular target: T1, Ectonucleotide pyrophosphatase/phosphodiesterase family member 1; assay: Competitive inhibition of human NPP1 expressed in African green monkey COS7 cells using ATP as substrate after 20 mins by Michaelis-Menten plot analysis; assay type: cell-based, COS-7
[5] = Drug level in MgCl2/CaCl2/CHES buffer treated with (Z)-2-((5-iodofuran-2-yl)methylene)benzo[d]thiazolo[3,2-a]imidazol-3(2H)-one at pH 9 after 24 hrs by LC-MS analysis; assay type: physicochemical; details: pH 9, 24 h
[6] = Retention time of the compound in MgCl2/CaCl2/CHES buffer at pH 9 by LC-MS analysis; assay type: physicochemical

Row | Structure (SMILES) | Ki [1] | inhibition [2] | also measured
1 | O=c1/c(=C/c2ccccn2)sc2nc3ccccc3n12 | > 10 µM | 39% | 
2 | O=c1/c(=C\c2ccc3ccccc3c2)sc2nc3ccccc3n12 | > 10 µM | 24% | 
3 | O=c1/c(=C/c2cccc(OCc3ccccc3)c2)sc2nc3ccccc3n12 | > 10 µM | 10% | 
4 | O=c1/c(=C/c2ccc(-c3ccccc3)o2)sc2nc3ccccc3n12 | ≥ 10 µM | 48% | 
5 | O=c1/c(=C\c2ccccc2)sc2nc3ccccc3n12 | > 10 µM | 10% | 
6 | O=c1/c(=C/c2ccc(I)cc2)sc2nc3ccccc3n12 | > 10 µM | 31% | 
7 | Cc1ccc(/C=c2\sc3nc4ccccc4n3c2=O)cc1 | > 10 µM | 28% | 
8 | COc1cc(/C=c2/sc3nc4ccccc4n3c2=O)ccc1OCc1nnn[nH]1 | > 10 µM | 21% | 
9 | O=c1/c(=C/c2ccc(Sc3ccccc3)o2)sc2nc3ccccc3n12 | ≥ 10 µM | 40% | 
10 | CCN(CC)c1ncnc2c1ncn2[C@@H]1O[C@H](COP(=O)(O)OP(=O)(O)C(Br)(Br)P(=O)(O)O)[C@@H](O)[C@H]1O |  |  | Ki [3]: 12 µM
11 | O=c1/c(=C/c2ccccc2)sc2nc3ccccc3n12 | > 10 µM | 31% | 
12 | O=c1/c(=C/C=C/c2ccccc2)sc2nc3ccccc3n12 | > 10 µM | 24% | 
13 | C/C=c1\sc2nc3ccccc3n2c1=O | > 10 µM | 0% | 
14 | O=c1/c(=C/c2ccc(Cl)cc2)sc2nc3ccccc3n12 | > 10 µM | 32% | 
15 | Nc1c(S(=O)(=O)O)cc(Nc2ccc(Nc3nc(Cl)nc(Nc4cccc(S(=O)(=O)O)c4)n3)c(S(=O)(=O)O)c2)c2c1C(=O)c1ccccc1C2=O [REACTIVE BLUE 2] |  |  | Ki [4]: 0.52 µM
16 | O=C(/C(O)=C\c1ccc(I)o1)n1c(=S)[nH]c2ccccc21 |  |  | Drug metabolism [5]: metabolite_detected; Retention_time [6]: 3.8 min

Continued, in another order:

Row | Ki [1] | inhibition [2] | Structure (SMILES) | also measured
17 | 8.56 µM |  | CC1CCN(c2cc(N3CCC(C)CC3)c([N+](=O)[O-])cc2/C=c2/sc3nc4ccccc4n3c2=O)CC1 | 
18 | > 10 µM | 13% | O=c1/c(=C/c2cccc(Oc3ccccc3)c2)sc2nc3ccccc3n12 | 
19 | ≥ 10 µM | 43% | O=c1/c(=C/c2cccs2)sc2nc3ccccc3n12 | 
20 | > 10 µM | 11% | O=c1/c(=C/c2cccc(Cc3ccccc3)c2)sc2nc3ccccc3n12 | 
21 | 4.21 µM |  | CN(C)c1ccc(/C=c2\sc3nc4ccccc4n3c2=O)o1 | 
22 | > 10 µM | 30% | O=c1[nH]c2ccccc2cc1/C=c1/sc2nc3ccccc3n2c1=O | 
23 | 8.91 µM |  | O=c1/c(=C/c2ccc(N3CCOCC3)cc2)sc2nc3ccccc3n12 | 
24 | 2.11 µM |  | Cc1ccc(/C=c2\sc3nc4ccccc4n3c2=O)o1 | 
25 | 0.61 µM |  | O=c1/c(=C/c2ccc(Br)o2)sc2nc3ccccc3n12 | 
26 | 1.07 µM |  | O=c1/c(=C/c2ccc([N+](=O)[O-])o2)sc2nc3ccccc3n12 | 
27 | 0.981 µM |  | O=c1/c(=C/c2ccco2)sc2nc3ccccc3n12 | 
